The nature of the first data set: clinical. Conditions: human, in vivo.
Turning to `Cc1ccnc2c1NC(=O)c1cccnc1N2C1CC1` [NEVIRAPINE], the CL renal was determined as 0.01 mL/min/kg.
In the case of `CC(C)N(CCC(C(N)=O)(c1ccccc1)c1ccccn1)C(C)C` (centres undefined) [DISOPYRAMIDE], the CL renal was determined as 0.5 mL/min/kg.
The same measure, in the same setting: then `C#CCN(C)[C@H](C)Cc1ccccc1` [SELEGILINE], with 0.2 mL/min/kg.
`C=CC1=C(C(=O)O)N2C(=O)[C@@H](NC(=O)/C(=N\OCC(=O)O)c3csc(N)n3)[C@H]2SC1` [CEFIXIME] registered a CL renal of 0.42 mL/min/kg.
For the molecule `Clc1cccc(Cl)c1N=C1NCCN1` [CLONIDINE], the CL renal came to 2.48 mL/min/kg.
On to `CC1COc2c(N3CCN(C)CC3)c(F)cc3c(=O)c(C(=O)O)cn1c23` (centres undefined) [OFLOXACIN], for which the CL renal turned out to be 2.7 mL/min/kg.
In turn, `CCN(CC)C(=O)/C(C#N)=C/c1cc(O)c(O)c([N+](=O)[O-])c1` [ENTACAPONE] showed a CL renal of 6.4 mL/min/kg.
In turn, `CSc1ccc(C(=O)c2[nH]c(=O)[nH]c2C)cc1` [ENOXIMONE] yielded a CL renal of 0.1 mL/min/kg.
On to `C[C@@H](O)[C@H]1C(=O)N2C(C(=O)O)=C(S[C@@H]3CN[C@H](C(=O)N(C)C)C3)[C@H](C)[C@H]12` [MEROPENEM], for which the CL renal was 2.73 mL/min/kg.
Consider `Nc1nc(O)c2ncn(COC(CO)CO)c2n1` [GANCICLOVIR], for which the CL renal was found to be 4.14 mL/min/kg.
The molecule `CC(=O)NC[C@H]1CN(c2ccc(N3CCOCC3)c(F)c2)C(=O)O1` [LINEZOLID] yielded a CL renal of 0.6 mL/min/kg.
Same read-out and setting: next, `CC(C)c1nc(N(C)S(C)(=O)=O)nc(-c2ccc(F)cc2)c1/C=C/[C@@H](O)C[C@@H](O)CC(=O)O` [ROSUVASTATIN]: 3.3 mL/min/kg.
The molecule `Oc1ccc2c3c1O[C@H]1[C@@H](O)CC[C@@]4(O)[C@@H](C2)N(CC2CCC2)CC[C@]314` [NALBUPHINE] came in with a CL renal of 0.95 mL/min/kg.
The same measure, in the same setting: then `CCOC(=O)c1ncn2c1CN(C)C(=O)c1cc(F)ccc1-2` [FLUMAZENIL], with 0.03 mL/min/kg; and `CN(C)CCC=C1c2ccccc2CCc2ccccc21` [AMITRIPTYLINE], with 0.12 mL/min/kg.
For `CC(C)(C)NC(=O)[C@@H]1CN(Cc2cccnc2)CCN1C[C@@H](O)C[C@@H](Cc1ccccc1)C(=O)N[C@H]1c2ccccc2C[C@H]1O.O`, the CL renal was found to be 1.53 mL/min/kg.
Turning to `CC(C)(C)NCC(O)COc1cccc2c1CC(O)C(O)C2` (centres undefined) [NADOLOL], the CL renal amounted to 1.8 mL/min/kg.
Same read-out and setting: next, `C[C@H](N[C@@H](CCc1ccccc1)C(=O)O)C(=O)N1CCC[C@H]1C(=O)O` [ENALAPRILAT ANHYDROUS]: 1.6 mL/min/kg; `O=C1Cc2cc(CCN3CCN(c4nsc5ccccc45)CC3)c(Cl)cc2N1` [ZIPRASIDONE]: 0.05 mL/min/kg.
`C[C@@H]1CN(c2c(F)c(N)c3c(=O)c(C(=O)O)cn(C4CC4)c3c2F)C[C@H](C)N1` [SPARFLOXACIN] registered a CL renal of 0.4 mL/min/kg.
Molecule `CCC(CC)O[C@@H]1C=C(C(=O)O)C[C@H](N)[C@H]1NC(C)=O` [OSELTAMIVIR CARBOXYLATE] had a CL renal of 4.46 mL/min/kg.
The molecule `Cc1cccc(C)c1NC(=O)C(C)N` (centres undefined) [TOCAINIDE] yielded a CL renal of 0.8 mL/min/kg.
Same read-out and setting: next, `CC(CN1c2ccccc2Sc2ccccc21)N(C)C` (centres undefined) [PROMETHAZINE]: 0.14 mL/min/kg; `COc1cc(OC)c(C(=O)CCCN2CCCC2)c(OC)c1` [BUFLOMEDIL]: 1.3 mL/min/kg; `CC1=C(C(=O)O)N2C(=O)[C@@H](NC(=O)[C@H](N)C3=CCC=CC3)[C@H]2SC1` [CEPHRADINE]: 3.14 mL/min/kg.
With `C[C@]12C=CC(=O)C=C1CC[C@@H]1[C@@H]2[C@@H](O)C[C@@]2(C)[C@H]1CC[C@]2(O)C(=O)CO` [PREDNISOLONE], the CL renal came out at 0.6 mL/min/kg.
Molecule `COc1c(N2CCNC(C)C2)c(F)cc2c(=O)c(C(=O)O)cn(C3CC3)c12` (centres undefined) [GATIFLOXACIN] registered a CL renal of 2.3 mL/min/kg.
With `Sc1ncnc2nc[nH]c12` [MERCAPTOPURINE ANHYDROUS], the CL renal amounted to 0.68 mL/min/kg.
The molecule `CC[C@H]1OC(=O)[C@H](C)[C@@H](O[C@H]2C[C@@](C)(OC)[C@@H](O)[C@H](C)O2)[C@H](C)[C@@H](O[C@@H]2O[C@H](C)C[C@H](N(C)C)[C@H]2O)[C@](C)(O)C[C@@H](C)C(=O)[C@H](C)[C@@H](O)[C@]1(C)O` [ERYTHROMYCIN] registered a CL renal of 0.34 mL/min/kg.
Regarding `C[C@H]1O[C@@H](O[C@H]2[C@@H](O)C[C@H](O[C@H]3[C@@H](O)C[C@H](O[C@H]4CC[C@@]5(C)[C@H](CC[C@@H]6[C@@H]5C[C@@H](O)[C@]5(C)[C@@H](C7=CC(=O)OC7)CC[C@]65O)C4)O[C@@H]3C)O[C@@H]2C)C[C@H](O)[C@@H]1O` [DIGOXIN], the CL renal amounted to 1.7 mL/min/kg.
For the molecule `Nc1cc(-c2ccncc2)c[nH]c1=O` [INAMRINONE], the CL renal came out at 3.1 mL/min/kg.
Same read-out and setting: next, `CN(C)[C@@H]1C(O)=C(C(N)=O)C(=O)[C@@]2(O)C(O)=C3C(=O)c4c(O)cccc4[C@@](C)(O)[C@H]3C[C@@H]12` [TETRACYCLINE]: 0.9 mL/min/kg; `CCNCC(O)c1cccc(O)c1` (centres undefined) [ETILEFRINE]: 3.96 mL/min/kg; `O=C1c2c(O)ccc(O)c2C(=O)c2c(NCCNCCO)ccc(NCCNCCO)c21` [MITOXANTRONE]: 0.5 mL/min/kg.
On to `O=C(O)CCCc1ccc(N(CCCl)CCCl)cc1` [CHLORAMBUCIL], for which the CL renal was 0.03 mL/min/kg.
With `C[C@H]1C[C@@H]2[C@H]([C@@H](O)C[C@@]3(C)[C@H]2CC[C@]3(O)C(=O)CO)[C@@]2(C)C=CC(=O)C=C12` [METHYLPREDNISOLONE], the CL renal came out at 0.3 mL/min/kg.
In turn, `Cc1ncsc1CCCl` [CLOMETHIAZOLE] showed a CL renal of 0.03 mL/min/kg.
In turn, `C[C@@H](O)[C@H]1C(=O)N2C(C(=O)O)=C(S[C@H]3C[C@@H](C(=O)N4CC[C@H](NC(=O)CNC(=N)N)C4)N(C)C3)[C@H](C)[C@H]12` [TOMOPENEM] registered a CL renal of 1.14 mL/min/kg.
Same read-out and setting: next, `CCN(CC)CCNC(=O)c1cc(Cl)c(N)cc1OC` [METOCLOPRAMIDE]: 1.14 mL/min/kg; `CC(C)(C)NC[C@H](O)COc1nsnc1N1CCOCC1` [TIMOLOL]: 1.4 mL/min/kg.
`C[C@H]1c2cccc(O)c2C(=O)C2=C(O)[C@]3(O)C(=O)C(C(N)=O)=C(O)[C@@H](N(C)C)[C@@H]3[C@@H](O)[C@@H]21.O` [DOXYCYCLINE] showed a CL renal of 0.19 mL/min/kg.
`CC(CC(c1ccccc1)c1ccccc1)NC(C)(C)C` (centres undefined) [TERODILINE] displayed a CL renal of 0.14 mL/min/kg.
`CO/N=C(\C(=O)N[C@@H]1C(=O)N2C(C(=O)O)=C(COC(N)=O)CS[C@H]12)c1ccco1` [CEFUROXIME] had a CL renal of 2.11 mL/min/kg.
Still for that read-out and setting: next, `S=P(N1CC1)(N1CC1)N1CC1` [THIOTEPA]: 0.03 mL/min/kg.
Regarding `CN(C)CCCC1(c2ccc(F)cc2)OCc2cc(C#N)ccc21` (centres undefined) [CITALOPRAM], the CL renal came out at 0.45 mL/min/kg.
In turn, `Nc1nc(NC2CC2)c2ncn([C@H]3C=C[C@@H](CO)C3)c2n1` [ABACAVIR] registered a CL renal of 0.15 mL/min/kg.
Turning to `c1ccc(C2(c3ccccc3)CC2C2=NCCN2)cc1` (centres undefined) [CIFENLINE], the CL renal came to 4.2 mL/min/kg.
`COCC(=O)Nc1c(I)c(C(=O)NCC(O)CO)c(I)c(C(=O)N(C)CC(O)CO)c1I` (centres undefined) [IOPROMIDE] yielded a CL renal of 1.37 mL/min/kg.
Molecule `Cc1onc(-c2ccccc2)c1C(=O)N[C@@H]1C(=O)N2[C@@H]1SC(C)(C)[C@@H]2C(=O)O` [OXACILLIN] gave a CL renal of 2.6 mL/min/kg.
Still for that read-out and setting: next, `COc1cccc(OC)c1C(=O)N[C@@H]1C(=O)N2[C@@H]1SC(C)(C)[C@@H]2C(=O)O` [METHICILLIN]: 4.2 mL/min/kg; `CC(C)NCC(O)COc1ccc(CCOCC2CC2)cc1` (centres undefined) [BETAXOLOL]: 0.7 mL/min/kg.
`CNS(=O)(=O)Cc1ccc2[nH]cc(CCN(C)C)c2c1` returned a CL renal of 3.7 mL/min/kg.
On the same count and under the same terms, then `CO/N=C(\C(=O)N[C@@H]1C(=O)N2C(C(=O)O)=CCS[C@H]12)c1csc(N)n1` [CEFTIZOXIME], with 1.68 mL/min/kg; and `CCCc1nc2c(C)cc(-c3nc4ccccc4n3C)cc2n1Cc1ccc(-c2ccccc2C(=O)O)cc1`, with 0.08 mL/min/kg.
The molecule `Oc1ccc2c(c1)[C@@]13CCCC[C@@]1(O)[C@@H](C2)N(CC1CCC1)CC3` [BUTORPHANOL] returned a CL renal of 2.05 mL/min/kg.
The molecule `CCOc1ccc2ccccc2c1C(=O)N[C@@H]1C(=O)N2[C@@H]1SC(C)(C)[C@@H]2C(=O)O` [NAFCILLIN] returned a CL renal of 1.03 mL/min/kg.
Same read-out and setting: then `C[C@@H]([C@@H](O)c1ccc(O)cc1)N1CCC(O)(c2ccccc2)CC1` [TRAXOPRODIL], with 1.92 mL/min/kg; and `CC(C)[C@H]1CC[C@H](C(=O)N[C@H](Cc2ccccc2)C(=O)O)CC1` [NATEGLINIDE], with 0.1 mL/min/kg; and `CC[C@@]1(O)C(=O)OCc2c1cc1n(c2=O)Cc2cc3c(CN(C)C)c(O)ccc3nc2-1` [TOPOTECAN], with 5.2 mL/min/kg.
The molecule `NS(=O)(=O)c1cc(C2(O)NC(=O)c3ccccc32)ccc1Cl` (centres undefined) [CHLORTHALIDONE] showed a CL renal of 0.98 mL/min/kg.
On the same count and under the same terms, next, `CC1(C)S[C@@H]2[C@H](NC(=O)Cc3ccccc3)C(=O)N2[C@H]1C(=O)O` [PENICILLIN G]: 5 mL/min/kg; `Nc1nc(Cl)nc2c1ncn2[C@H]1C[C@H](O)[C@@H](CO)O1` [CLADRIBINE]: 3.92 mL/min/kg; `CN(C)Cc1nnc2n1-c1ccc(Cl)cc1C(c1ccccc1)=NC2` [ADINAZOLAM]: 2.6 mL/min/kg.
Turning to `Cc1[nH]c(=O)c(C#N)cc1-c1ccncc1` [MILRINONE], the CL renal was determined as 5 mL/min/kg.
Turning to `CC1(C)S[C@@H]2[C@H](NC(=O)[C@H](N)c3ccc(O)cc3)C(=O)N2[C@H]1C(=O)O` [AMOXICILLIN], the CL renal amounted to 1.89 mL/min/kg.
As to `Cc1cn([C@H]2C=C[C@@H](CO)O2)c(=O)[nH]c1=O` [STAVUDINE], the CL renal was 3.53 mL/min/kg.
`COC(=O)Nc1nc2ccc(C(=O)c3ccccc3)cc2[nH]1` [MEBENDAZOLE] displayed a CL renal of 0.17 mL/min/kg.

The next data set can be described thus: Total body clearance in human. Conditions: in vivo.
Turning to `Cc1ccnc2c1NC(=O)c1cccnc1N2C1CC1` [NEVIRAPINE], the clearance was 0.3 mL/min/kg.
In the case of `CC(C)N(CCC(C(N)=O)(c1ccccc1)c1ccccn1)C(C)C` (centres undefined) [DISOPYRAMIDE], the clearance stood at 0.9 mL/min/kg.
Still for that read-out and setting: next, `C#CCN(C)[C@H](C)Cc1ccccc1` [SELEGILINE]: 20 mL/min/kg; `C=CC1=C(C(=O)O)N2C(=O)[C@@H](NC(=O)/C(=N\OCC(=O)O)c3csc(N)n3)[C@H]2SC1` [CEFIXIME]: 1 mL/min/kg; `Clc1cccc(Cl)c1N=C1NCCN1` [CLONIDINE]: 4 mL/min/kg.
Molecule `CC1COc2c(N3CCN(C)CC3)c(F)cc3c(=O)c(C(=O)O)cn1c23` (centres undefined) [OFLOXACIN] returned a clearance of 3.5 mL/min/kg.
Still for that read-out and setting: then `CCN(CC)C(=O)/C(C#N)=C/c1cc(O)c(O)c([N+](=O)[O-])c1` [ENTACAPONE], with 11.7 mL/min/kg; and `COCCCOc1ccnc(C[S+]([O-])c2nc3ccccc3[nH]2)c1C` (centres undefined) [RABEPRAZOLE], with 4 mL/min/kg; and `CN1C(=O)C(O)N=C(c2ccccc2Cl)c2cc(Cl)ccc21` (centres undefined) [LORMETAZEPAM], with 4 mL/min/kg.
In turn, `CCC1=C(C)CN(C(=O)NCCc2ccc(S(=O)(=O)NC(=O)N[C@H]3CC[C@H](C)CC3)cc2)C1=O` [GLIMEPIRIDE] registered a clearance of 0.5 mL/min/kg.
The molecule `Cc1cc(NC(=O)C2=C(O)c3ccccc3S(=O)(=O)N2C)no1` [ISOXICAM] had a clearance of 0.07 mL/min/kg.
The molecule `O=P1(N(CCCl)CCCl)NCCCO1` (centres undefined) [CYCLOPHOSPHAMIDE ANHYDROUS] yielded a clearance of 1.1 mL/min/kg.

One may read the clearance as the rate of elimination divided by the concentration. A lower clearance goes with inefficient removal.

Source of the values: ChEMBL document CHEMBL1151930, “Physicochemical determinants of human renal clearance” (J Med Chem, 2009).
